Measurements: US10864261B2, “Synthetic vaccines against Streptococcus pneumoniae serotype 2” (Max-Planck-Gesellschaft zur Förderung der Wissenschaften …, priority 2015, dated 2020)

Tested on: synthetic oligosaccharides and native S. pneumoniae serotype 2 capsular polysaccharides printed on slides
Details: mice s.c., pooled sera
Procedure: On day 14 and 28 mice were received a booster injection with the same amount of antigen emulsified with 1:1 (v/v) alum. […] Mice were bled submandibular weekly using sterile single-use blood lancet. Control mice received only PBS and PBS in alum. The antibody responses were measured in both sera by glycan microarray and ELISA.
Preparation of microarrays slides: The CodeLink NHS activated glass slides (Surmodics) were spotted with synthetic glycans and native polysaccharides at two different concentration (100 μM and 200 μM) in printing buffer (50 mM sodium phosphate, pH 8.5) by using a S3 piezoelectric microarray printer (Scienion) equipped with a type 4 coated nozzle. The relative humidity of spotted chamber was constantly maintained at 65%. The spotted slides were incubated over night at room temperature in a humidifying chamber. […]
Microarray binding assays: The printed slides were blocked with PBS-BSA (1%) for 1 h at room temperature and washed 3 times with PBS. […] Slides were incubated with a fluorescence-labeled goat anti-mouse secondary antibodies (Life Technologies) diluted in 1% BSA in PBS (w/v) in a humid chamber for 1 h at room temperature, washed three times with PBST, rinsed once with deionized water and dried by centrifugation (300×g, 5 min) prior to scanning with a GenePix 4300A microarray scanner (Molecular Devices, Sunnyvale, Calif., USA). […]

SMILES: C[C@@H]1O[C@H](O[C@H]2[C@H](O)[C@@H](O)[C@H](O[C@@H]3[C@@H](O)[C@H](C)O[C@@H](O[C@@H]4[C@@H](O)[C@H](C)O[C@@H](OCCCCCN)[C@@H]4O)[C@@H]3O[C@H]3O[C@H](CO[C@H]4O[C@H](C(=O)O)[C@@H](O)[C@H](O)[C@H]4O)[C@@H](O)[C@H](O)[C@H]3O)O[C@@H]2CO)[C@H](O)[C@H](O)[C@H]1O [hexasaccharide 2, 5-amino pentyl β-L-rhamnopyranosyl-(1→4)-β-D-glucopyranosyl-(1→3)-α-L-{α-D-glucopyranosyl uronate-(1→6)-α-D-glucopyranosyl-(1→2)}rhamnopyranosyl-(1→3)-α-L-rhamnopyranoside]
- antibody response specific to hexasaccharide 2 / core glycan structures (immunogenicity) (3 μg sugar per dose with alum 1:1, boosts day 14 and 28, anti-mouse IgG): immunogenic in mice
- cross-reactivity of raised antibodies with other fragments of hexasaccharide 2 printed on the slides (3 μg sugar per dose with alum 1:1): induces cross-reactive antibodies
